12 compounds from ChEMBL document CHEMBL4196087 (Eur J Med Chem, 2018) can be followed below.

Usually MIC stands for the lowest concentration found to suppress growth. A lower MIC goes with inhibition by little substance.

Holding throughout (type): functional
One assay concerns Escherichia coli. The experiment in a line: Antibacterial activity against Escherichia coli at 37 degC measured after 24 hrs by agar disc diffusion method. On the technique in general: Agar diffusion results depend on both activity and mobility in agar.
A further assay concerns Staphylococcus aureus. The assay can be described thus: Antibacterial activity against Staphylococcus aureus at 37 degC measured after 24 hrs by agar disc diffusion method.
Assay [1] concerns Pseudomonas aeruginosa. The assay can be described thus: Antibacterial activity against Pseudomonas aeruginosa at 37 degC measured after 24 hrs by agar disc diffusion method.
The test system of assay [2] is Bacillus subtilis. The assay can be described thus: Antibacterial activity against Bacillus subtilis at 37 degC measured after 24 hrs by agar disc diffusion method.
The subject of the next assay is SK-MEL-5. The experiment in a line: Growth inhibition of human SK-MEL-5 cells at 10^-5 M incubated for 48 hrs by sulforhodamine B assay relative to control. Particulars: SK-MEL-5, 48 h, read-out: GI. For orientation: In SRB staining, fixed cells bind dye roughly in proportion to their protein.
A further assay concerns MDA-MB-468. The experiment in a line: Growth inhibition of human MDA-MB-468 cells at 10^-5 M incubated for 48 hrs by sulforhodamine B assay relative to control. Particulars: MDA-MB-468, 48 h, read-out: GI.
The next assay has as its system K562. The experiment in a line: Growth inhibition of human K562 cells at 10^-5 M incubated for 48 hrs by sulforhodamine B assay relative to control. Conditions: K562, 48 h, read-out: GI.
The test system of a further assay is HOP-92. The assay can be described thus: Growth inhibition of human HOP92 cells at 10^-5 M incubated for 48 hrs by sulforhodamine B assay relative to control. Conditions: HOP-92, 48 h, read-out: GI.
The next assay has as its system LOX IMVI. The experiment in a line: Growth inhibition of human LOXIMVI cells at 10^-5 M incubated for 48 hrs by sulforhodamine B assay relative to control. Particulars: read-out: GI.
In the next assay the test system is SF-539. The experiment in a line: Growth inhibition of human SF539 cells at 10^-5 M incubated for 48 hrs by sulforhodamine B assay relative to control. Particulars: SF-539, 48 h, read-out: GI.
Another assay relates to MCF7. The experiment in a line: Growth inhibition of human MCF7 cells at 10^-5 M incubated for 48 hrs by sulforhodamine B assay relative to control. Particulars: MCF7, 48 h, read-out: GI.
For a further assay, the system named is MOLT-4. The assay can be described thus: Growth inhibition of human MOLT4 cells at 10^-5 M incubated for 48 hrs by sulforhodamine B assay relative to control. Conditions: MOLT-4, 48 h, read-out: GI.
Assay [3] concerns Pseudomonas aeruginosa. The assay can be described thus: Antibacterial activity against Pseudomonas aeruginosa at 37 degC measured after 24 hrs by CLSI M7-A4 protocol based method.
In another assay the test system is NCI-H226. The experiment in a line: Growth inhibition of human NCI-H226 cells at 10^-5 M incubated for 48 hrs by sulforhodamine B assay relative to control. Particulars: NCI-H226, 48 h, read-out: GI.
A further assay relates to RPMI-8226. The assay can be described thus: Growth inhibition of human RPMI8226 cells at 10^-5 M incubated for 48 hrs by sulforhodamine B assay relative to control. Conditions: RPMI-8226, 48 h, read-out: GI.
Another assay relates to CCRF-CEM. The experiment in a line: Growth inhibition of human CCRF-CEM cells at 10^-5 M incubated for 48 hrs by sulforhodamine B assay relative to control. Particulars: read-out: GI.
For a further assay, the system named is MDA-MB-231. The experiment in a line: Growth inhibition of human MDA-MB-231 cells at 10^-5 M incubated for 48 hrs by sulforhodamine B assay relative to control. Particulars: MDA-MB-231, 48 h, read-out: GI.
The subject of the next assay is UO-31. The experiment in a line: Growth inhibition of human UO31 cells at 10^-5 M incubated for 48 hrs by sulforhodamine B assay relative to control. Conditions: UO-31, 48 h, read-out: GI.
For another assay, the system named is T47D. The assay can be described thus: Growth inhibition of human T47D cells at 10^-5 M incubated for 48 hrs by sulforhodamine B assay relative to control. Particulars: read-out: GI.
The subject of another assay is HL-60(TB). The experiment in a line: Growth inhibition of human HL-60(TB) cells at 10^-5 M incubated for 48 hrs by sulforhodamine B assay relative to control. Particulars: HL-60, 48 h, read-out: GI.
A further assay deals with A498. The experiment in a line: Growth inhibition of human A498 cells at 10^-5 M incubated for 48 hrs by sulforhodamine B assay relative to control. Conditions: A498, 48 h, read-out: GI.
The test system of assay [4] is Bacillus subtilis. The experiment in a line: Antibacterial activity against Bacillus subtilis at 37 degC measured after 24 hrs by CLSI M7-A4 protocol based method.
In a further assay the test system is HOP-62. The experiment in a line: Growth inhibition of human HOP62 cells at 10^-5 M incubated for 48 hrs by sulforhodamine B assay relative to control. Conditions: HOP-62, 48 h, read-out: GI.
The next assay deals with IGROV-1. The assay can be described thus: Growth inhibition of human IGROV1 cells at 10^-5 M incubated for 48 hrs by sulforhodamine B assay relative to control. Particulars: IGROV-1, 48 h, read-out: GI.
Another assay concerns PC-3. The assay can be described thus: Growth inhibition of human PC3 cells at 10^-5 M incubated for 48 hrs by sulforhodamine B assay relative to control. Particulars: PC-3, 48 h, read-out: GI.
The subject of a further assay is SNB-75. The assay can be described thus: Growth inhibition of human SNB75 cells at 10^-5 M incubated for 48 hrs by sulforhodamine B assay relative to control. Conditions: SNB-75, 48 h, read-out: GI.

In brackets after ≈: the same amount, converted by molar mass.

Turning to `O=C(O)c1cn(C2CC2)c2cc(N3CCNCC3)c(F)cc2c1=O` [CIPROFLOXACIN], the “diameter of the inhibition zone (DIZ)” value stood at 33 mm in the assay with Escherichia coli, 31 mm in the assay on Staphylococcus aureus, 36 mm in the assay on Pseudomonas aeruginosa [1] and 38 mm in the assay on Bacillus subtilis [2].
For the compound `O=C(CN1CCN(c2cc3c(cc2F)c(=O)c(C(=O)O)cn3C2CC2)CC1)N/N=C/c1ccc(F)cc1`, the “diameter of the inhibition zone (DIZ)” value is 17 mm with Escherichia coli, 18 mm in the assay on Staphylococcus aureus, 19 mm in the assay with Pseudomonas aeruginosa [1] and 19 mm in the assay on Bacillus subtilis [2].
For the compound `O=C(CN1CCN(c2cc3c(cc2F)c(=O)c(C(=O)O)cn3C2CC2)CC1)N/N=C/c1ccccc1F`, the “diameter of the inhibition zone (DIZ)” value with Escherichia coli came out at 26 mm; in the assay on Staphylococcus aureus, 26 mm; in the assay with Pseudomonas aeruginosa [1], 29 mm; with Bacillus subtilis [2], 29 mm.
Regarding `O=C(CN1CCN(c2cc3c(cc2F)c(=O)c(C(=O)O)cn3C2CC2)CC1)N/N=C/c1ccccc1Cl`, the “diameter of the inhibition zone (DIZ)” value in the assay on Escherichia coli came to 19 mm; in the assay on Staphylococcus aureus it was 20 mm; with Pseudomonas aeruginosa [1], 22 mm; with Bacillus subtilis [2], 22 mm.
For `COc1cc(/C=N/NC(=O)CN2CCN(c3cc4c(cc3F)c(=O)c(C(=O)O)cn4C3CC3)CC2)ccc1O`, the “diameter of the inhibition zone (DIZ)” value was found to be 18 mm in the assay with Escherichia coli, 16 mm in the assay on Staphylococcus aureus, 18 mm in the assay with Pseudomonas aeruginosa [1] and 20 mm in the assay on Bacillus subtilis [2].
For the compound `O=C(CN1CCN(c2cc3c(cc2F)c(=O)c(C(=O)O)cn3C2CC2)CC1)N/N=C/c1cccs1`, the inhibition of growth at 10 µM in the assay with SK-MEL-5 was less than 20%; with MDA-MB-468 it was less than 20%; in the assay with K562 it was less than 20%; in the assay with HOP-92 it was less than 20%; in the assay with LOX IMVI, 27.7%; in the assay on SF-539, less than 20%. The inhibition of growth at 10 µM with MCF7, in the assay on MOLT-4, in the assay on NCI-H226, in the assay with RPMI-8226, with CCRF-CEM and with MDA-MB-231 was less than 20% in each case. In addition, the inhibition of growth at 10 µM with UO-31 was less than 20%; in the assay on T47D, less than 20%; with HL-60(TB), less than 20%; with A498, 23.1%; with HOP-62, less than 20%; with IGROV-1, less than 20%. Also, the inhibition of growth at 10 µM in the assay with PC-3 and with SNB-75 was less than 20% each time. In addition, the “diameter of the inhibition zone (DIZ)” value turned out to be 24 mm with Escherichia coli, 23 mm with Staphylococcus aureus, 26 mm in the assay on Pseudomonas aeruginosa [1] and 28 mm in the assay with Bacillus subtilis [2]. The figures for the MIC against Pseudomonas aeruginosa [3] and with Bacillus subtilis [4] were 72 µg/mL (≈ 145 µM) and 82 µg/mL (≈ 165 µM), respectively.
With `O=C(CN1CCN(c2cc3c(cc2F)c(=O)c(C(=O)O)cn3C2CC2)CC1)N/N=C/c1ccncc1`, the “diameter of the inhibition zone (DIZ)” value is 28 mm in the assay on Escherichia coli, 30 mm with Staphylococcus aureus, 30 mm with Pseudomonas aeruginosa [1] and 35 mm in the assay with Bacillus subtilis [2]. The MIC with Pseudomonas aeruginosa [3] is 44 µg/mL (≈ 89.3 µM); with Bacillus subtilis [4], 62 µg/mL (≈ 126 µM).
`NNC(=O)CN1CCN(c2cc3c(cc2F)c(=O)c(C(=O)O)cn3C2CC2)CC1`: the inhibition of growth at 10 µM in the assay on SK-MEL-5, in the assay on MDA-MB-468, with K562, in the assay with HOP-92, with LOX IMVI and in the assay with SF-539 was less than 20% in each case. For the same compound, the inhibition of growth at 10 µM with MCF7, with MOLT-4, in the assay with NCI-H226, in the assay on RPMI-8226, with CCRF-CEM and in the assay on MDA-MB-231 was less than 20% each time. The inhibition of growth at 10 µM is less than 20% in the assay with UO-31; less than 20% in the assay with T47D; 20.5% with HL-60(TB); less than 20% in the assay on A498; less than 20% in the assay with HOP-62; less than 20% with IGROV-1. Besides, the inhibition of growth at 10 µM in the assay with PC-3 and with SNB-75 was less than 20% each time. The “diameter of the inhibition zone (DIZ)” value in the assay with Escherichia coli came out at 28 mm; in the assay with Staphylococcus aureus, 28 mm; with Pseudomonas aeruginosa [1], 30 mm; in the assay with Bacillus subtilis [2], 33 mm.
On to `O=C(CN1CCN(c2cc3c(cc2F)c(=O)c(C(=O)O)cn3C2CC2)CC1)N/N=C/c1cccnc1`, for which the “diameter of the inhibition zone (DIZ)” value is recorded as 29 mm in the assay on Escherichia coli, 30 mm with Staphylococcus aureus, 31 mm in the assay on Pseudomonas aeruginosa [1] and 32 mm with Bacillus subtilis [2]. For the same compound, the minimum inhibitory concentration (MIC) was 58 µg/mL (≈ 118 µM) with Pseudomonas aeruginosa [3] and 60 µg/mL (≈ 122 µM) against Bacillus subtilis [4].
On to `O=C(CN1CCN(c2cc3c(cc2F)c(=O)c(C(=O)O)cn3C2CC2)CC1)N/N=C/c1ccco1`, for which the “diameter of the inhibition zone (DIZ)” value with Escherichia coli amounted to 28 mm; in the assay on Staphylococcus aureus it was 26 mm; with Pseudomonas aeruginosa [1], 30 mm; in the assay with Bacillus subtilis [2] it was 31 mm. The MIC in the assay with Pseudomonas aeruginosa [3] stood at 66 µg/mL (≈ 137 µM); against Bacillus subtilis [4], 70 µg/mL (≈ 145 µM).
As for `COc1ccc(/C=N/NC(=O)CN2CCN(c3cc4c(cc3F)c(=O)c(C(=O)O)cn4C3CC3)CC2)cc1`, the inhibition of growth at 10 µM was less than 20% with SK-MEL-5; less than 20% with MDA-MB-468; less than 20% with K562; less than 20% with HOP-92; 23.2% in the assay on LOX IMVI; less than 20% with SF-539. Moreover, the inhibition of growth at 10 µM in the assay with MCF7, in the assay on MOLT-4, with NCI-H226, with RPMI-8226, with CCRF-CEM and in the assay with MDA-MB-231 was less than 20% each time. Moreover, the inhibition of growth at 10 µM in the assay with UO-31, with T47D, in the assay with HL-60(TB), in the assay with A498, in the assay with HOP-62 and in the assay with IGROV-1 was less than 20% throughout. Moreover, the inhibition of growth at 10 µM in the assay with PC-3 and in the assay on SNB-75 was less than 20% in each case. Moreover, the “diameter of the inhibition zone (DIZ)” value was found to be 24 mm in the assay on Escherichia coli, 25 mm with Staphylococcus aureus, 27 mm in the assay on Pseudomonas aeruginosa [1] and 26 mm with Bacillus subtilis [2].
As for `COc1cc(/C=N/NC(=O)CN2CCN(c3cc4c(cc3F)c(=O)c(C(=O)O)cn4C3CC3)CC2)cc(OC)c1OC`, the “diameter of the inhibition zone (DIZ)” value in the assay on Escherichia coli was 20 mm; with Staphylococcus aureus it was 21 mm; in the assay on Pseudomonas aeruginosa [1] it was 23 mm; in the assay on Bacillus subtilis [2], 23 mm.
